Reference: ChEMBL document CHEMBL1212815, “Quinolines and structurally related heterocycles as antimalarials” (Eur J Med Chem, 2010)
Converted amounts (≈) assume the structure as drawn. The source made the active and inactive calls. The rule behind the calls is not given here.

Assays:
[1] = Inhibition of Plasmodium falciparum falcipain-2
Plasmodium berghei [2] = experiment: Antiplasmodial activity against Plasmodium berghei infected in perorally dosed mice (Mus musculus); assay type: functional, organism-based
Plasmodium falciparum [3] = experiment: Antimalarial activity against Plasmodium falciparum; assay type: functional, organism-based
Plasmodium falciparum [4] = experiment: Antimalarial activity against chloroquine-resistant Plasmodium falciparum D10; assay type: functional, organism-based
Plasmodium falciparum [5] = experiment: Antimalarial activity against chloroquine-resistant Plasmodium falciparum; assay type: functional, organism-based
Plasmodium falciparum [6] = experiment: Antimalarial activity against chloroquine-sensitive Plasmodium falciparum; assay type: functional, organism-based
Plasmodium chabaudi = experiment: Antiplasmodial activity against Plasmodium chabaudi infected in mice (Mus musculus) assessed as reduction in parasitaemia measured at 50 mg/kg, perorally daily for 4 days; assay type: functional, organism-based; set-up: dose 50 mg/kg
Plasmodium falciparum [7] = experiment: Antimalarial activity against Plasmodium falciparum FAC8; assay type: functional, organism-based
Plasmodium falciparum [8] = experiment: Antimalarial activity against chloroquine-resistant Plasmodium falciparum W2; assay type: functional, organism-based
[9] = Toxicity in mouse assessed as maximum tolerated dose; assay type: organism-based; conditions: in vivo, read-out: Activity
Plasmodium berghei [10] = experiment: Antiplasmodial activity against Plasmodium berghei infected in mice (Mus musculus) assessed as suppression of parasitaemia at 100 mg/kg, po; assay type: functional
Plasmodium falciparum [11] = experiment: Antimalarial activity against chloroquine-resistant Plasmodium falciparum K1; assay type: functional, organism-based
[12] = Inhibition of Plasmodium falciparum DHFR
Plasmodium falciparum [13] = experiment: Antimalarial activity against chloroquine-resistant Plasmodium falciparum 3D7; assay type: functional, organism-based; conditions: read-out: ED50 (the source's name)
[14] = Inhibition of Plasmodium falciparum protein farnesyltransferase
Plasmodium falciparum [15] = experiment: Antimalarial activity against chloroquine-resistant Plasmodium falciparum FcB1; assay type: functional, organism-based; conditions: FcB1/Columbia
Plasmodium vinckei = experiment: Antiplasmodial activity against Plasmodium vinckei infected in mice (Mus musculus) assessed as reduction in parasitemia measured per day for 4 days; assay type: functional; conditions: 96 h
Plasmodium falciparum [16] = experiment: Selectivity index, ratio of IC50 for Plasmodium falciparum D6 to IC50 for Plasmodium falciparum W2; assay type: functional
[17] = Dissociation constant, pKa of the compound; assay type: physicochemical
Plasmodium falciparum [18] = experiment: Antimalarial activity against chloroquine-resistant Plasmodium falciparum HB3; assay type: functional, organism-based
Plasmodium falciparum [19] = experiment: Antimalarial activity against chloroquine-resistant Plasmodium falciparum Dd2; assay type: functional, organism-based
Plasmepsin II = Plasmepsin II (Plasmodium falciparum, UniProt P46925); experiment: Inhibition of Plasmodium falciparum plasmepsin-2
Chain of Plasmepsin II (P46925 whole entry): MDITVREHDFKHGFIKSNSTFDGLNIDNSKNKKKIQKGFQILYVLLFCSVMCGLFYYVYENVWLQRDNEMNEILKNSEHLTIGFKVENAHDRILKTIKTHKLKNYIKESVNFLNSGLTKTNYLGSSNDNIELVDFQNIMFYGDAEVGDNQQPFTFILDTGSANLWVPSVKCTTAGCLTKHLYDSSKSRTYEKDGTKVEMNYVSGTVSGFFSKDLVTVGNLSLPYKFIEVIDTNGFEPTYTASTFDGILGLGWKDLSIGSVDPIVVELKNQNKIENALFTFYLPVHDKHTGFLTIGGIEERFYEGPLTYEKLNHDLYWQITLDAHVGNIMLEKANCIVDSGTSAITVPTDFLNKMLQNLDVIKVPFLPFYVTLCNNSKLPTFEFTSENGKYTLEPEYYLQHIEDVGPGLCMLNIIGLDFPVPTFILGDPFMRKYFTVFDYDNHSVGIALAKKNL

CC1(C(=O)NC2CCCCC2)CCCC(=O)N1CCCCCCNc1ccnc2cc(Cl)ccc12 (stereo not given)
IC50 [1]: 17700 nM

OC1(C(F)(F)F)CC(c2ccccc2)=NN1c1ccnc2cc(Cl)ccc12 (stereo not given)
IC50 (Plasmodium berghei [2]; Plasmodium berghei): 1.06 µg/mL

N=C(N)c1ccc(OCCCCCOc2ccc(C(=N)N)cc2)cc1 [PENTAMIDINE]
IC50 (Plasmodium falciparum [3]; Plasmodium falciparum): 2.9 µg/mL
IC90 (Plasmodium falciparum [3]; Plasmodium falciparum): 6.5 µg/mL (≈ 19.1 µM)

CN(C)CCCN(CCCN(C)C)CCCN1c2ccccc2Sc2ccc(Cl)cc21
IC50 (Plasmodium falciparum [4]): 120 nM

COc1cc2cc(/C=C/C(=O)c3ccc(Cl)cc3Cl)c(Cl)nc2cc1OC
IC50 (Plasmodium falciparum [3]; Plasmodium falciparum): 19000 nM

Clc1ccc2c(NCCC[C@H]3CCN4CCCC[C@@H]4C3)ccnc2c1
IC50 (Plasmodium falciparum [5]): 21 nM

CCC(=O)CCCCC[C@@H]1NC(=O)[C@H]2CCCCN2C(=O)[C@H]([C@H](C)CC)NC(=O)[C@H](c2c[nH]c3ccccc3c2=O)NC1=O
IC50 (Plasmodium falciparum [6]): 0.04 µg/mL
IC50 (Plasmodium falciparum [5]): 0.04 µg/mL

CCOC(=O)c1c(CN2CCCCC2)nc2ccc(Cl)cc2c1-c1ccccc1
IC50 (Plasmodium falciparum [3]; Plasmodium falciparum): 2.56 µg/mL

Clc1cccc(C(Nc2ccnc3cc(Cl)ccc23)c2ccc(CN3CCCC3)cc2)c1 (stereo not given)
Activity (Plasmodium chabaudi): Active

CCN(CC)CCCC(C)Nc1ccnc2c(NC(=O)CCCCC(=O)Nc3cccc4c(NC(C)CCCN(CC)CC)ccnc34)cccc12 (stereo not given)
IC50 (Plasmodium falciparum [7]): 120 nM

COc1cc2cc(/C=C3\CCc4c(OC)cccc4C3=O)c(Cl)nc2cc1OC
inhibition (INH) (Plasmodium falciparum [3]): 50%

Clc1ccc2c(N[C@H]3CCN4CCCC[C@@H]4C3)ccnc2c1
IC50 (Plasmodium falciparum [5]): 21 nM
IC50 (Plasmodium falciparum [8]): 23.3 nM

CCCCCOc1c(OC)cc(NC(C)CCCN)c2nccc(CC)c12 (stereo not given)
IC50 (Plasmodium falciparum [6]): 0.0094 µg/mL
IC50 (Plasmodium falciparum [5]): 0.0097 µg/mL

CN(CC(O)CNCc1ccc(Cl)c(Cl)c1)S(=O)(=O)c1cccc2cnccc12 (stereo not given)
MIC (Plasmodium falciparum [3]; Plasmodium falciparum): 2 µg/mL (≈ 4.4 µM)

Clc1ccc2c(NC[C@H]3CCN4CCCC[C@@H]4C3)ccnc2c1
IC50 (Plasmodium falciparum [5]): 21 nM

Clc1ccc2c(N3CCNCC3)ccnc2c1
IC50 (Plasmodium falciparum [6]): 1020 nM
IC50 (Plasmodium falciparum [5]): 1020 nM

Clc1ccc2c(N3CCN(Cc4ccccc4Br)CC3)ccnc2c1
IC50 (Plasmodium falciparum [5]): 11400 nM

O=C(NCCNc1ccnc2cc(Cl)ccc12)C1CCC2(CC1)OOC1(CCCCC1)OO2
Activity (Plasmodium berghei [2]): 80 mg/kg
MTD [9]: > 960 mg/kg

COc1cc(NC(C)CCCN)c2nc(C(C)(C)C)ccc2c1 (stereo not given)
Activity (Plasmodium berghei [10]): 100%

O=C1CCSC(c2ccc(Cl)cc2)N1CCCNc1ccnc2cc(Cl)ccc12 (stereo not given)
IC50 (Plasmodium falciparum [5]): 13 nM

O=C1c2ccccc2SCN1CCNc1ccnc2cc(Cl)ccc12
IC50 (Plasmodium falciparum [5]): 13 nM

O=C1CSC(c2c(Cl)cccc2Cl)N1CCNc1ccnc2cc(Cl)ccc12 (stereo not given)
IC50 (Plasmodium falciparum [5]): 13 nM

CCN(CC)Cc1cc(N)cc(Nc2ccnc3cc(Cl)ccc23)c1
IC50 (Plasmodium berghei [2]; Plasmodium berghei): 18.1 nM

CCN(CC)Cc1ccc(Nc2ccnc3cc(Cl)ccc23)cc1O [ISOQUINE]
IC50 (Plasmodium falciparum [11]): 6.01 nM

OC1(C(F)(F)F)CC(c2ccc(Br)cc2)=NN1c1ccnc2cc(Cl)ccc12 (stereo not given)
IC50 (Plasmodium berghei [2]; Plasmodium berghei): 1.39 µg/mL

Cc1cc(NC(=O)CN2CCN(C)CC2)c2cc(NC(=O)Nc3cc(Cl)cc(Cl)c3)ccc2n1
IC50 [12]: 0.0004 µg/mL (≈ 0.000798 µM)

Clc1ccc2c(N3CCN(CCCN4CCN(c5ccnc6cc(Cl)ccc56)CC4)CC3)ccnc2c1 [PIPERAQUINE]
IC50 (Plasmodium falciparum [6]): 36 nM

Cn1cnc(S(=O)(=O)N(Cc2ccccc2)C2Cc3cc(C#N)ccc3N(Cc3cncn3C)C2)c1 (stereo not given)
EC50 (Plasmodium falciparum [13]): 5 nM
IC50 [14]: 0.6 nM

CC(C)C1=C[C@H]2OC3(CCC(NCCNc4ccnc5cc(Cl)ccc45)CC3)OO[C@@]2(C)CC1.O=C(O)CC(O)(CC(=O)O)C(=O)O (stereo not given in full)
IC50 (Plasmodium falciparum [15]): 15 nM
ED50 (Plasmodium vinckei): 5 mg/kg

OC1(C(F)(F)F)CC(c2ccc(Cl)cc2)=NN1c1ccnc2cc(Cl)ccc12 (stereo not given)
IC50 (Plasmodium berghei [2]; Plasmodium berghei): 1.39 µg/mL

CCOC(=O)c1c(C)nc2ccc(Cl)cc2c1-c1ccccc1
IC50 (Plasmodium falciparum [3]; Plasmodium falciparum): 4.47 µg/mL

CC(C)(C)NCc1cc(Nc2ccnc3cc(Cl)ccc23)ccc1F
ED50 (Plasmodium berghei [2]; Plasmodium berghei): 5.3 mg/kg

CN1CC2CCC1C(CNc1ccnc3cc(Cl)ccc13)C2 (stereo not given)
Ratio IC50 (Plasmodium falciparum [16]): >1200

Cc1cc(NC(=O)c2ccco2)c2cc(NC(=O)Nc3cccc(C#N)c3)ccc2n1
IC50 [12]: 0.0004 µg/mL (≈ 0.000972 µM)

O=C(CN(CCCNc1ccnc2cc(Cl)ccc12)C(=O)c1ccncc1)NC1CCCCC1
IC50 (Plasmodium falciparum [5]): 73 nM

C1CC2CCC1CN2 [ISOQUINUCLIDINE]
pKa [17]: 11

Clc1ccc2c(NCC[C@H]3CCN4CCCC[C@@H]4C3)ccnc2c1
IC50 (Plasmodium falciparum [5]): 21 nM

Clc1ccc2c(NCCNCC3CCC4(CC3)OOC3(CCCCC3)OO4)ccnc2c1
Activity (Plasmodium berghei [2]): 80 mg/kg
MTD [9]: > 960 mg/kg

CCN(CCNc1ccnc2cc(Cl)ccc12)CCNS(=O)(=O)c1ccc2c(N(C)C)cccc2c1
IC50 (Plasmodium falciparum [18]): 17.5 nM
IC50 (Plasmodium falciparum [19]): 22.7 nM

CCCCNC(=O)C[C@H](O)[C@H](CC(C)C)NC(=O)[C@@H](NC(=O)c1ccc(Oc2ccc(C(=O)N[C@@H](CC(C)C)C(=O)N[C@@H](CCCCN)C(=O)NCCCC(C)Nc3cc(OC)cc4cccnc34)cc2)cc1)[C@@H](C)CC (stereo not given in full)
IC50 (Plasmepsin II): 0.59 nM
